One assay deals with aorta rings. The assay is described as follows: Vasorelaxant effect in vitro (phenylephrine-contracted aorta rings). The class given is cell-based, Rabbits. The conditions noted are these: Oryctolagus cuniculus; rabbit aorta rings, contraction induced by phenylephrine, 37° C., 0.1% DMSO; read-out: IC50 (concentration necessary to reduce the level of contraction by 50%). As for the experimental part: Rabbits are stunned by a blow to the back of the neck and are exsanguinated. The aorta is removed, freed of adherent tissue, divided into rings 1.5 mm wide and placed singly in 5 ml organ baths with carbogen-gassed Krebs-Henseleit solution of the following composition (in each case mM): NaCl: 119; KCl: 4.8; CaCl2×2H2O: 1; MgSO4×7H2O: 1.4; KH2PO4: 1.2; NaHCO3: 25; glucose: 10, under an initial tension at 37° C. The force of contraction is detected with Statham UC2 cells, amplified and digitized via A/D converters (DAS-1802 HC, Keithley Instruments Munich), and recorded in parallel on chart recorders. A contraction is induced by adding phenylephrine to the bath cumulatively in increasing concentration. After several control cycles, the substance to be investigated is added in each further run in increasing dosage each time, and the level of contraction is compared with the level of contraction achieved in the last preceding run. The concentration necessary to reduce the level of contraction by 50% (IC50) is calculated therefrom. The standard application volume is 5 μl and the DMSO content in the bath solution corresponds to 0.1%.

For assay [1] the following is noted: reported by A. Straub et al., Bioorg. Med. Chem. Lett. 11, 781-784 (2001); cited from earlier work.

Regarding `Clc1ccc(Cn2nc(-c3nnn[nH]3)c3cccnc32)s1` [Example 7, 1-[(5-Chloro-2-thienyl)methyl]-3-(1H-tetrazol-5-yl)-1H-pyrazolo[3,4-b]pyridine], the IC50 in the assay with aorta rings was determined as 6.1 µM. For the compound `Fc1ccccc1Cn1nc(-c2nnn[nH]2)c2cccnc21` [1-(2-fluorobenzyl)-3-(1H-tetrazol-5-yl)-1H-pyrazolo[3,4-b]pyridine], the vasorelaxant effect result in assay [1] is on record as “moderately vasorelaxant effect”. In the case of `Fc1cccc(Cn2nc(-c3nnn[nH]3)c3cccnc32)c1F` [Example 4, 1-(2,3-Difluorobenzyl)-3-(1H-tetrazol-5-yl)-1H-pyrazolo[3,4-b]pyridine], the IC50 with aorta rings is 4.5 µM. Same read-out and setting: the value for `c1cnc2c(c1)c(-c1nnn[nH]1)nn2CC1CCCCCC1` [Example 1, 1-(Cycloheptylmethyl)-3-(1H-tetrazol-5-yl)-1H-pyrazolo[3,4-b]pyridine] was 2 µM.

Source of the values: patent US20100113507A1, “3-Tetrazolyl Indazoles, 3-Tetrazolyl Pyrazolopyridines, and use Thereof” (BAYER HEALTHCARE AG, priority 2006, published 2010).
